Laboratory results as given in article PMC8003975 (Cancers, 2021).

Experiments:
c-Met = assay: Western blot of treated HNC cells; assay type: cell-based, human; details: Cal27, JHU029 and JHU022 cells, 48 hr; 2% or 3% BME, 10 or 20 µg/mL M-I; vs vehicle control
Method: (§1) Figure 2 Momordicine-I inhibited c-Met signaling in HNC cells. (A) Cal27, JHU029 […] cells were treated with either 2% BME or 10 µg/mL of M-I and JHU022 cells were treated with either 3% BME or 20 µg/mL dose of M-I. Cell lysates were prepared after 48 hr of treatment and subjected to Western blot analysis using specific antibodies. Representative Western blot images for c-Met expression in Cal27, JHU029 and JHU022 cells are shown. Membrane was reprobed with the antibody for actin as an internal control. (B) Representative Western blot image for phospho-STAT3 (pSTAT3 Tyr-705) and total STAT3 expression in Cal27 and JHU029 cells with BME or M-I treatment. Membrane was reprobed by actin as an internal control. Quantitative representation of Western blot band intensities (right panel). Small bar indicates standard error (* p < 0.05; *** p < 0.001). (C) Cal27 cells were treated with 2% BME or M-I (10 μg/mL) at indicated time points. (D) Cal27 cells were treated with control siRNA or siRNA to c-Met (si-Met) for 48 hr. Cell lysates (from panels c and D) were subjected to analyze by western blot for pSTAT3 or STAT3 using specific antibody. Membranes were reprobed by actin as internal control. Quantitative representation of Western blot band intensities (right panel). Small bar indicates standard error (*** p < 0.001).
(§2) Bitter melon extract (BME) was prepared from the Chinese variety of young bitter melons (raw and green) as described previously. Briefly, BME was prepared by aqueous extraction from whole fruit without seeds using a household juicer at room temperature with subsequent centrifugation at 15000× g at 4 °C for 30 min. BME was stored at −80 °C for further analysis. Cal27 and JHU029 cells were treated with 2% BME and JHU022 cells were treated with 3% BME as described previously. The momordicine-I (>98% pure) was purchased from Chemfaces (Cat. No.: CFN92076; Hubei, China). The powder was dissolved in DMSO and added to the cells at different concentrations. Based on cytotoxicity data, Cal27 and JHU029 cells were treated with 10 µg/mL and JHU022 cells were treated with 20 µg/mL dose of M-I and incubated for 48 hr for further experiments. All the experiments were done at least in triplicate.
(§3) Lysates from control, BME or M-I treated cells and tumors were prepared using 2× SDS sample buffer and subjected to western blot analysis using specific antibodies to c-Met (1: 500, Cell Signaling Technology, CST, Denvers, MA, USA,), phospho- STAT3 (pSTAT3-Tyr-705) (1:1000, CST), total STAT3 (1:1000, CST), c-Myc (1:1000, CST), survivin (1:500, Santa Cruz Biotechnology, SBT, Dallas, TX, USA) and cyclin D1 (1: 500, SBT). HRP conjugated anti-mouse or anti-rabbit secondary antibodies were purchased from Bio-Rad (Hercules, CA, USA). The blot was reprobed with HRP conjugated β-actin antibody (1:5000; SBT) to compare protein load in each lane. Densitometry analysis was done using Image J software (NIH, Bethesda, MD, USA).

phospho-STAT3 (Tyr-705) = assay: Western blot of treated HNC cells; assay type: cell-based, human
Method: as §1, §2, §3

total STAT3 = assay: Western blot of treated HNC cells; assay type: cell-based, human; details: for total STAT3 level, short term treatment: Cal27 cells, 2% BME or 10 μg/mL M-I
Method: as §1, §2, §3

c-Myc = assay: Western blot of treated HNC cells; assay type: cell-based, human; details: Cal27 and JHU029 cells, 48 hr; 2% BME or 10 µg/mL M-I
Method: (§4) Figure 3 Momordicine-I inhibits downstream of c-Met signaling in HNC cells. Representative Western blot image for c-Myc, survivin and cyclin D1 expression in Cal27 and JHU029 cells with treatment of BME or M-I. The same membrane used in panel A was reprobed. Actin was used as internal control. Quantitative representation of Western blot band intensities (right panel). Small bar indicates standard error (*** p < 0.001).
as §2, with “triplicate. […]” for “triplicate.”

cyclin D1 = assay: Western blot of treated HNC cells; assay type: cell-based, human; details: Cal27 and JHU029 cells, 48 hr; 2% BME or 10 µg/mL M-I
Method: as §4
as §2, with “triplicate. […]” for “triplicate.”

[1] = Toxicity study, 5 days, body weight and serum chemistries; assay type: in vivo, C57Bl/6 male mice
Method: For toxicity analysis, mice (n = 3) were given 20 mg/ kg of M-I twice a day or 30 mg/kg IP dose of M-I once a day by IP injection for five days. In parallel, there were untreated control (n = 3) and BME treated group (n = 3) for comparison. Behavior and body weight of mice were monitored daily. The body weight in all the mice was stable, with no drastic changes seen in any of the mice tested. We collected blood on day six, and serum chemistries related to liver and kidney function were examined.
For toxicity study, C57Bl/6 male mice were received either 30% BME through drinking water or 20 mg/kg of M-I twice a day or 30 mg/kg of M-I once a day by IP injection for 5 days. There were three mice in each group, including untreated control. Blood was collected on day 6, and serum was prepared. Serum parameters related to hepatotoxicity (total bilirubin, alanine transaminase, aspartate transaminase, and alkaline phosphatase) and nephrotoxicity (urea and creatinine) were performed.

For CC(C)=CC(O)CC(C)[C@H]1CC[C@@]2(C)[C@@H]3[C@@H](O)C=C4[C@@H](CC[C@H](O)C4(C)C)[C@]3(C=O)CC[C@]12C (stereo partly drawn) [M-I, (3S, 7S, 8S, 9R, 10R, 13R, 14S, 17R) 3,7-dihydroxy-17-(4-hydroxy-6-methylhept-5-en-2-yl)-4,4,13,14-tetramethyl-2,3,7,8,10,11, 12,15,16,17-decahydro-1H-cyclopenta[a]phenanthrene-9-carbaldehyde], the c-Met expression (c-Met) was “significant reduction”, the “phospho-STAT3 (Tyr-705) expression” value (phospho-STAT3 (Tyr-705); Cal27 and JHU029 cells, 48 hr, 2% BME or 10 µg/mL M-I) was “significant reduction” and the “pSTAT3 level, short term treatment” value (phospho-STAT3 (Tyr-705); Cal27 cells, 15 min, 2% BME or 10 μg/mL M-I) was “inhibits”. The “total STAT3 level” value (total STAT3; Cal27 and JHU029 cells, 48 hr, 10 µg/mL M-I) was “substantial reduction”, the “total STAT3 level, short term treatment” value (total STAT3; 15 min) was “without affecting” and the “total STAT3 level, short term treatment” value (total STAT3; 240 min) was “inhibited”. The c-Myc expression (c-Myc) was “significant inhibition”, the “cyclin D1 expression” value (cyclin D1) was “significant inhibition” and the body weight ([1]; M-I 20 mg/kg twice a day or 30 mg/kg once a day IP, or 30% BME in drinking water, five days) was “stable”. The “serum chemistries (total bilirubin, alanine transaminase, aspartate transaminase, alkaline phosphatase, creatinine, urea, glucose) versus untreated control” value ([1]; blood on day six, M-I IP for five days or 30% BME in drinking water) was “comparable”.
